# Assay results: PMC6829886, “Inhibition of Non-Small Cell Lung Cancer Cells by Oxy210, an Oxysterol-Derivative that Antagonizes TGFβ and Hedgehog Signaling” (Cells, 2019)
# What was measured:
# [1] = test system: GLI1, GLI2, SHH mRNA in A549 NSCLC cells; assay: GLI and SHH mRNA expression in A549 cells (Q-RT-PCR); format: cell-based, human
# Description: Total RNA was extracted with the RNeasy Plus Mini Kit from Qiagen (Hilden, Germany) according to the manufacturer’s instructions. One microgram of RNA was reverse-transcribed using an iScript Reverse Transcription Supermix from Bio-Rad Laboratories (Hercules, CA, USA) to make single-stranded cDNA. The cDNAs were then mixed with Qi SYBR Green Supermix (Bio-Rad) for quantitative RT-PCR assay using a Bio-Rad I-cycler IQ quantitative thermocycler. All PCR samples were prepared in triplicate wells in a 96-well plate. After 40 cycles of PCR, melt curves were examined in order to ensure primer specificity. Fold changes in gene expression were calculated using the ΔΔCt method. Primers used for mouse were as follows: Oaz1 (5′-CCACTGCTTCGCCAGAGAG-3′) and (5′-CCCGGACCCAGGTTACTA-3′), Gli1 (5′- […]-3′ and 5′- GCT GATCCAGCCTAAGGTTCTC-3′), Ptch1 (5′-CCATCGGCGACAAGAACC-3′ and 5′-[…]-3′), Thbs1 (5′-[…]-3′ and 5′-CGGGGATCAGGTTGGCATT-3′), Cryab (5′-[…]-3′ and 5′-[…]-3′), Egr2 (5′-[…]-3′ and 5′-[…]-3′), CTGF (5′-GGGCCTCTTCTGCGATTTC-3′ and 5′-[…]-3′).
# Primers used for human were as follows: GAPDH (5′- […]-3′ and 5′- […]-3′), SHH (5′- CGGAGCGAGGAAGGGAAAG-3′) and (5′- […]-3′), GLI1 (5′- GAAGCCGAGCCGAGTATC-3′ and 5′-[…]-3′), GLI2 (5′-[…]-3′ and 5′-[…]-3′), Fn-EDA (5′- […]-3′ and 5′- […]-3′), E-Cadherin (5′- […]-3′ and 5′- TCCCAGGCGTAGACCAAGA-3′), SNAIL (5′- […]-3′ and 5′- […]-3′), N-Cadherin (5′- […]-3′ and 5′- […]-3′), Vimentin (5′- […]-3′ and 5′- […]-3′), ZO-1 (5′- […]-3′ and 5′- […]-3′), MMP2 (5′- […]-3′ and 5′- […]-3′), MMP9 (5′-[…]-3′ and 5′-[…]).
# Figure 6 Inhibition of Glis and SHH expression in Non-Small Cell Lung Cancer (NSCLC) cells. A549 (a) and H2030 (b) cells were treated with Oxy210 in RPMI 1640 containing 5% FBS for 72 h, then RNA was extracted and analyzed by Q-RT-PCR for the expression of the indicated genes and normalized to GAPDH expression. (c) A549 cells were pretreated for 2 h with Oxy210 in RPMI 1640 containing 5% FBS. […] After 48 h, RNA was extracted and analyzed by Q-RT-PCR for the expression of Gli1 and Shh and normalized to GAPDH expression. […]
# [2] = test system: H2030 cells; assay: TGFβ-induced EMT gene expression in H2030 cells; format: cell-based, human; details: 48 h
# Description: Total RNA was extracted with the RNeasy Plus Mini Kit from Qiagen (Hilden, Germany) according to the manufacturer’s instructions. One microgram of RNA was reverse-transcribed using an iScript Reverse Transcription Supermix from Bio-Rad Laboratories (Hercules, CA, USA) to make single-stranded cDNA. The cDNAs were then mixed with Qi SYBR Green Supermix (Bio-Rad) for quantitative RT-PCR assay using a Bio-Rad I-cycler IQ quantitative thermocycler. All PCR samples were prepared in triplicate wells in a 96-well plate. After 40 cycles of PCR, melt curves were examined in order to ensure primer specificity. Fold changes in gene expression were calculated using the ΔΔCt method. Primers used for mouse were as follows: Oaz1 (5′-CCACTGCTTCGCCAGAGAG-3′) and (5′-CCCGGACCCAGGTTACTA-3′), Gli1 (5′- […]-3′ and 5′- GCT GATCCAGCCTAAGGTTCTC-3′), Ptch1 (5′-CCATCGGCGACAAGAACC-3′ and 5′-[…]-3′), Thbs1 (5′-[…]-3′ and 5′-CGGGGATCAGGTTGGCATT-3′), Cryab (5′-[…]-3′ and 5′-[…]-3′), Egr2 (5′-[…]-3′ and 5′-[…]-3′), CTGF (5′-GGGCCTCTTCTGCGATTTC-3′ and 5′-[…]-3′). […]
# Figure 8 Inhibition of TGFβ-induced EMT in NSCLC cells. […] After 48 h, RNA was extracted and analyzed by Q-RT-PCR for the expression of the genes as indicated and normalized to GAPDH expression. […]
# [3] = Dose escalation study with repeated once daily oral dosing for 7 days in mice; format: in vivo; details: once daily oral 50, 200 and 400 mg/kg for 7 days
# Description: In an initial assessment of drug-like properties of Oxy210, we performed a pharmacokinetic (PK) study in mice. Oxy210, formulated in 3% DMSO + 7% Ethanol + 5% PEG400 + 85% corn oil, was administered to balb/c mice by oral gavage as a single dose of 50 mg/kg. Plasma samples were taken at 10 min, 30 min, 1 h, 2 h, 4 h, and 8h, followed by LC/MS analysis. […] Additional PK studies in mice were performed with Oxy210 in a dose escalation study with repeated once daily oral dosing (50 mg/kg, 200 mg/kg and 400 mg/kg) for 7 days.
smiles,measurement,setting,value
"C[C@]12CC[C@H]3[C@@H](CC=C4C[C@@H](O)CC[C@@]43C)[C@@H]1CC[C@@H]2[C@](C)(O)CCc1cccnc1 [Oxy210, (3S,8S,9S,10R,13S,14S,17S)-17-((R)-2-hydroxy-4-(pyridin-3-yl)butan-2-yl)-10,13-dimethyl-2,3,4,7,8,9,10,11,12,13,14,15,16,17-tetradecahydro-1H-cyclopenta[a]phenanthren-3-ol]",mRNA expression of GLI1 and GLI2,"[1]; 5 μM, 72 h",significantly inhibited
same,expression of SHH mRNA,[1]; 72 h,significantly inhibited
same,expression of GLI1 and SHH mRNA induced by TGFβ,"[1]; TGFβ 10 ng/mL, 48 h",completely inhibited
same,genes associated with TGFβ-induced EMT,[2],complete suppression
same,PK linearity,[3],linear PK parameters and exposure
same,tolerability,[3],well tolerated and apparently safe
